Assay results from ChEMBL document CHEMBL1909046, “DrugMatrix in vitro pharmacology data”.

Key:
[1] = DRUGMATRIX: GABAA, Muscimol, Central radioligand binding (ligand: [3H] Muscimol); type: cell membranes, Rattus norvegicus, Wistar, Brain, Membrane; conditions: Not Active = under 50% inhibition at 10 µM
[2] = target: Mitogen-activated protein kinase 3 (Homo sapiens, UniProt P27361); test: DRUGMATRIX: Protein Serine/Threonine Kinase, ERK1 enzyme inhibition (substrate: Myelin Basic Protein); parameters: species or system Escherichia coli; conditions: Not Active = under 50% inhibition at 10 µM
Sequence of Mitogen-activated protein kinase 3 (P27361 whole entry): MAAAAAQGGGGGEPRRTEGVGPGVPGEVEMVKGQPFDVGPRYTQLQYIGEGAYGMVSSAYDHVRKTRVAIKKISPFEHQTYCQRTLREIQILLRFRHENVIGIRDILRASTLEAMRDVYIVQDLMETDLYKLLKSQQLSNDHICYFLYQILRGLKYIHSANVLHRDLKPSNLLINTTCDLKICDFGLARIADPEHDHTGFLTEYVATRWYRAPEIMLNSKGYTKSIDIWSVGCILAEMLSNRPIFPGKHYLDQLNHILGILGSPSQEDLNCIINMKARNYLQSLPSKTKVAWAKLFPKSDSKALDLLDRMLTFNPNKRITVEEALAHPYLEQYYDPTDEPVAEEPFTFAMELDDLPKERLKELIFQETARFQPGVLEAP

[3] = DRUGMATRIX: Tumor Necrosis Factor (TNF), Non-Selective radioligand binding (ligand: [125I] TNF-alpha); type: cell membranes, Membrane; conditions: u-937; Not Active = under 50% inhibition at 10 µM
[4] = DRUGMATRIX: ATPase, Na+/K+ enzyme inhibition (substrate: ATP); type: tissue-based, Sus scrofa, Heart; conditions: Not Active = under 50% inhibition at 10 µM
[5] = target: Melanocortin receptor 5 (Homo sapiens, UniProt P33032); type: cell membranes, HEK293, Membrane; conditions: hek293; note: in other assays of this panel Not Active means under 50% inhibition at 10 µM
Sequence of Melanocortin receptor 5 (P33032 whole entry): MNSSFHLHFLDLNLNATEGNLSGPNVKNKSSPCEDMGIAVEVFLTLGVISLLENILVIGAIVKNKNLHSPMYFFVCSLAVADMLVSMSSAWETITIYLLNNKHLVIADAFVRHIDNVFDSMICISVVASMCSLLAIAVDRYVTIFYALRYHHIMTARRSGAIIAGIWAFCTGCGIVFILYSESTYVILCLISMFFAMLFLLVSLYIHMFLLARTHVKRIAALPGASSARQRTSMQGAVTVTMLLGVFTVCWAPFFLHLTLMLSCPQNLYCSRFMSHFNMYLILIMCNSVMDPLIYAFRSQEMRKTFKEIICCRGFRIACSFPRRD

[6] = target: T1, Interstitial collagenase (Homo sapiens, UniProt P03956); test: biochemical; type: tissue-based, Rheumatoid synovial fibroblasts;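 note: MMP-1 enzyme inhibition assay using a peptide substrate; in other assays of this panel Not Active means under 50% inhibition at 10 µM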
T1 sequence (P03956 whole entry): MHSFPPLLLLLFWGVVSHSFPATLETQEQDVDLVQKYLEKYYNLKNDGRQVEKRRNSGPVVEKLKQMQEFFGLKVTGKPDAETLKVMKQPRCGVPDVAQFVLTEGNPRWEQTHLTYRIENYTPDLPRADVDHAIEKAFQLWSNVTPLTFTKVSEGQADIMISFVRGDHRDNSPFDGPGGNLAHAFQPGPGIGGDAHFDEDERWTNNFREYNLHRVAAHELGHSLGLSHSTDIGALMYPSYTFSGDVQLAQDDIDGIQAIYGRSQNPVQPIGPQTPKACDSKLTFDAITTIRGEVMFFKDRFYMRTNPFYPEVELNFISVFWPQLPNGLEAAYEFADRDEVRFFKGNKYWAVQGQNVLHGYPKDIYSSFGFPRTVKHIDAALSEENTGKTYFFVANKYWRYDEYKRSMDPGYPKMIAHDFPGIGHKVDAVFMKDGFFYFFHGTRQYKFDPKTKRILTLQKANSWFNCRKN

[7] = target: T2, Receptor-type tyrosine-protein phosphatase C (Homo sapiens, UniProt P08575); parameters: species or system Escherichia coli;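 note: inhibition of CD45 enzyme activity measured using DiFMUP as substrate; in other assays of this panel Not Active means under 50% inhibition at 10 µM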
T2 sequence (P08575 whole entry): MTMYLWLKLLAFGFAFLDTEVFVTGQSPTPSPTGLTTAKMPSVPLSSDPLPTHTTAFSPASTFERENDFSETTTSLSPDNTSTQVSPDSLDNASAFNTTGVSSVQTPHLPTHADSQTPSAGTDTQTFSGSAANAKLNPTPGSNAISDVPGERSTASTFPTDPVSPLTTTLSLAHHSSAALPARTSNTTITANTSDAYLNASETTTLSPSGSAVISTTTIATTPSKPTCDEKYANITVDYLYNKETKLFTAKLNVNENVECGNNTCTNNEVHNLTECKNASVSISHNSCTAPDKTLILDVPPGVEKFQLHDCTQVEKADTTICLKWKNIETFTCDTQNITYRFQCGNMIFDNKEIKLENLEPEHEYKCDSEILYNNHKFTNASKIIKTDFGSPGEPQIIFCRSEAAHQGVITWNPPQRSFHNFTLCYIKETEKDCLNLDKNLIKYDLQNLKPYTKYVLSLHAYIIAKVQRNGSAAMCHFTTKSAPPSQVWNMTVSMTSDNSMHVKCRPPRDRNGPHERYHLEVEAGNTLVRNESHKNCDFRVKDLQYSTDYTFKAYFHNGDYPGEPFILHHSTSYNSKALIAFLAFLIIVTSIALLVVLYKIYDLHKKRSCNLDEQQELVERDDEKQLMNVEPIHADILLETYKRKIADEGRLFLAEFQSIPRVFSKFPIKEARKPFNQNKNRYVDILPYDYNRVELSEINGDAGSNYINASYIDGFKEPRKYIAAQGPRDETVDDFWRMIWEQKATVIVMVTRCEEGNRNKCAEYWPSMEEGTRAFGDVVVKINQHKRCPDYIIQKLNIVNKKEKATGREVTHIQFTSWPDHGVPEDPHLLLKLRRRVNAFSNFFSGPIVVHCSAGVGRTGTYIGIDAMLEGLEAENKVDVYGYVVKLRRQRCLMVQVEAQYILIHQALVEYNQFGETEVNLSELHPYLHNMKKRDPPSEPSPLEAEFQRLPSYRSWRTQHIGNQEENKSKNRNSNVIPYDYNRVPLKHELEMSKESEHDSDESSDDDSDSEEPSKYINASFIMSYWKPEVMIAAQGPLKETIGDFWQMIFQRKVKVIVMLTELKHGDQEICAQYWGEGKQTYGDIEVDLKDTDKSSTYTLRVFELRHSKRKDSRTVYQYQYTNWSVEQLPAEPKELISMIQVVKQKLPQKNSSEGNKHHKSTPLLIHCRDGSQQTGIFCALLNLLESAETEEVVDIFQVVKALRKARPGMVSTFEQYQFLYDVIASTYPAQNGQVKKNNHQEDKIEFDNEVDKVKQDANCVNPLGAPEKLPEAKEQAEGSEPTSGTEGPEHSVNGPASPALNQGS

[8] = DRUGMATRIX: Serotonin (5-Hydroxytryptamine) 5-HT3 radioligand binding (ligand: [3H] GR-65630); type: cell membranes, Membrane; conditions: hek293; Not Active = under 50% inhibition at 10 µM

Cc1cccc(C)c1OCC(C)N (centres undefined) [MEXILETINE]
Not Active: IC50 [1] | Ki [1] | IC50 [2] | IC50 [3] | Ki [3] | IC50 [4] | Ki [4] | IC50 [5] | IC50 [6] | IC50 [7] | IC50 [8] | Ki [8]

Nc1cc(N2CCCCC2)nc(N)[n+]1[O-] [MINOXIDIL]
Not Active: IC50 [1] | Ki [1] | IC50 [2] | IC50 [3] | Ki [3] | IC50 [4] | Ki [4] | IC50 [5] | IC50 [6] | IC50 [7] | IC50 [8] | Ki [8]

CO[C@H]1/C=C/O[C@@]2(C)Oc3c(C)c(O)c4c(O)c(c(/C=N/N5CCN(C6CCCC6)CC5)c(O)c4c3C2=O)NC(=O)/C(C)=C\C=C\[C@H](C)[C@H](O)[C@@H](C)[C@@H](O)[C@@H](C)[C@H](OC(C)=O)[C@@H]1C [RIFAPENTINE]
Not Active: IC50 [1] | Ki [1] | IC50 [2] | IC50 [3] | Ki [3] | IC50 [4] | Ki [4] | IC50 [5] | IC50 [6] | IC50 [7] | IC50 [8] | Ki [8]

CCCCOc1cc(CC2CNC(=O)N2)ccc1OC (centres undefined) [RO-201724]
Not Active: IC50 [1] | Ki [1] | IC50 [2] | IC50 [3] | Ki [3] | IC50 [4] | Ki [4] | IC50 [5] | IC50 [6] | IC50 [7] | IC50 [8] | Ki [8]

CC[C@@H](C(=O)[C@@H](C)[C@@H](O)[C@H](C)[C@@H]1O[C@@H]([C@@H](CC)C(=O)O)CC[C@@H]1C)[C@H]1O[C@]2(C=C[C@@H](O)[C@]3(CC[C@@](C)([C@H]4CC[C@](O)(CC)[C@H](C)O4)O3)O2)[C@H](C)C[C@@H]1C [SALINOMYCIN]
Not Active: IC50 [1] | Ki [1] | IC50 [2] | IC50 [3] | Ki [3] | IC50 [4] | Ki [4] | IC50 [5] | IC50 [6] | IC50 [7] | IC50 [8] | Ki [8]

O=C(Oc1ccccc1C(=O)O)c1ccccc1O [SALSALATE]
Not Active: IC50 [1] | Ki [1] | IC50 [2] | IC50 [3] | Ki [3] | IC50 [4] | Ki [4] | IC50 [5] | IC50 [6] | IC50 [7] | IC50 [8] | Ki [8]

O=C(O)c1cn(-c2ccc(F)cc2)c2cc(N3CCNCC3)c(F)cc2c1=O [SARAFLOXACIN]
Not Active: IC50 [1] | Ki [1] | IC50 [2] | IC50 [3] | Ki [3] | IC50 [4] | Ki [4] | IC50 [5] | IC50 [6] | IC50 [7] | IC50 [8] | Ki [8]

CC(C)NCC(O)c1ccc(NS(C)(=O)=O)cc1 (centres undefined) [SOTALOL]
Not Active: IC50 [1] | Ki [1] | IC50 [2] | IC50 [3] | Ki [3] | IC50 [4] | Ki [4] | IC50 [5] | IC50 [6] | IC50 [7] | IC50 [8] | Ki [8]

O.O.O.O.O.O.[Cl-].[Cl-].[Sr+2] [STRONTIUM CHLORIDE HEXAHYDRATE]
Not Active: IC50 [1] | Ki [1] | IC50 [2] | IC50 [3] | Ki [3] | IC50 [4] | Ki [4] | IC50 [5] | IC50 [6] | IC50 [7] | IC50 [8] | Ki [8]

O=C1C(CC[S+]([O-])c2ccccc2)C(=O)N(c2ccccc2)N1c1ccccc1 (centres undefined) [SULFINPYRAZONE]
Not Active: IC50 [1] | Ki [1] | IC50 [2] | IC50 [3] | Ki [3] | IC50 [4] | Ki [4] | IC50 [5] | IC50 [6] | IC50 [7] | IC50 [8] | Ki [8]

NC(=O)N1C(=O)/C(=C(\O)c2cccs2)c2cc(Cl)ccc21 [TENIDAP]
Not Active: IC50 [1] | Ki [1] | IC50 [2] | IC50 [3] | Ki [3] | IC50 [4] | Ki [4] | IC50 [5] | IC50 [6] | IC50 [7] | IC50 [8] | Ki [8]

COc1cc2nc(N3CCN(C(=O)C4CCCO4)CC3)nc(N)c2cc1OC (centres undefined) [TERAZOSIN]
Not Active: IC50 [1] | Ki [1] | IC50 [2] | IC50 [3] | Ki [3] | IC50 [4] | Ki [4] | IC50 [5] | IC50 [6] | IC50 [7] | IC50 [8] | Ki [8]

CN(C/C=C/C#CC(C)(C)C)Cc1cccc2ccccc12 [TERBINAFINE]
Not Active: IC50 [1] | Ki [1] | IC50 [2] | IC50 [3] | Ki [3] | IC50 [4] | Ki [4] | IC50 [5] | IC50 [6] | IC50 [7] | IC50 [8] | Ki [8]

CCCCNc1ccc(C(=O)OCCN(C)C)cc1 [TETRACAINE]
Not Active: IC50 [1] | Ki [1] | IC50 [2] | IC50 [3] | Ki [3] | IC50 [4] | Ki [4] | IC50 [5] | IC50 [6] | IC50 [7] | IC50 [8] | Ki [8]

Cn1c(=O)c2nc[nH]c2n(C)c1=O.O [THEOPHYLLINE]
Not Active: IC50 [1] | Ki [1] | IC50 [2] | IC50 [3] | Ki [3] | IC50 [4] | Ki [4] | IC50 [5] | IC50 [6] | IC50 [7] | IC50 [8] | Ki [8]

CS(=O)(=O)c1ccc([C@@H](O)[C@@H](CO)NC(=O)C(Cl)Cl)cc1 [THIAMPHENICOL]
Not Active: IC50 [1] | Ki [1] | IC50 [2] | IC50 [3] | Ki [3] | IC50 [4] | Ki [4] | IC50 [5] | IC50 [6] | IC50 [7] | IC50 [8] | Ki [8]

CCN(CC)CCNC(=O)c1cc(S(C)(=O)=O)ccc1OC [TIAPRIDE]
Not Active: IC50 [1] | Ki [1] | IC50 [2] | IC50 [3] | Ki [3] | IC50 [4] | Ki [4] | IC50 [5] | IC50 [6] | IC50 [7] | IC50 [8] | Ki [8]
